Test results published in patent publication US20030180375A1, “Use of xenon for treating neurointoxications” (AGA AB, priority 1999, published 2003).

Experiments:
[1] = test system: PC12 cells; experiment: Dopamine release of differentiated PC12 cells in a hypoxic situation (helium instead of oxygen), Example 1; format: cell-based, rats
Excerpt: An in vitro experiment with PC12 cells is concerned. These PC12 cells are dependants of a pheochromocytoma of rats. […] PC12 cells can be reproduced continuously in vitro. Following the addition of “nerve growth factor”, they start differentiating and become neurons which in many respects have the property of in vivo neurons, particularly the properties which relate to the neurotransmitter release. PC12 cells are acknowledged as neuronal model.
PC12 cells differentiated in such a manner when exposed to a hypoxic situation, release dopamine. […] If the cells are treated under these hypoxic conditions with xenon in defined concentrations over the same period of time, the neurotransmitter release will be dropped. […] If a hypoxic situation is triggered by a dose of helium instead of oxygen, the curve of the dopamine concentration will result as shown in the curve produced from the solid triangles. A maximum dopamine concentration is shown in this case after about 40 minutes. […] In the above-described experiment, the gases used were given to the cells by mixing them with the growth buffer for the cells. In this case, saturated gas buffer solutions are involved.

[2] = test system: PC12 cells; experiment: Dopamine release of differentiated PC12 cells under stress conditions (N2 hypoxia, glutamate), Example 2; format: cell-based, rats; parameters: dopamine release: dose or concentration left out as unconfirmed; conditions: FIG. 2
Excerpt: The differentiated PC12 cells described in Example 1 were distributed to various vessels and exposed to differing conditions. These conditions are defined as follows: […]
The dopamine release may even be increased if, in addition to the nitrogen atmosphere, glutamate, which represents a neurotransmitter and has a neurotoxic effect in greater doses, was given as well (group: Glu+N2).
Thus, the addition of glutamate to the cells effects an increased dopamine release, particularly when the cells are kept under hypoxic conditions.

[Xe] [xenon]
reversibility of the xenon effect ([1]; after the xenon is washed out, cells cannot be distinguished from untreated cells): fully reversible
dopamine concentration over the time course ([1]; xenon given in a hypoxic situation, saturated gas buffer solution, compared with non-stressed controls, FIG. 1A): virtually no longer differ from the control cell population
relative dopamine concentration (dopamine release) ([1]; xenon in a hypoxic situation, compared with control cells, FIG. 1B): reduced down to values of the control cells
dopamine release compared to the corresponding (glutamate+N2) experiment ([2]; Glu+Xe: 10 M glutamate for 30 minutes of incubation in xenon): reduced by two-thirds
dopamine release ([2]; Glu+Xe: glutamate for 30 minutes of incubation in xenon): slightly increased dopamine release
unintentional neurotransmitter release ([2]; simultaneous supply of xenon, glutamate and/or hypoxic conditions): reduced many times over
